Data on 79 molecules can be found in patent US20110183980A1, “O-BENZYL NICOTINAMIDE ANALOGS AS MGLUR5 POSITIVE ALLOSTERIC MODULATORS” (priority 2009, published 2011).

The assay deals with T1, rat mGluR5 (Rattus norvegicus, UniProt P31424).
T1 construct: expressed in transfected cells; host or cells: human embryonic kidney (HEK) cells
The assay can be described thus: Potentiation of glutamate response, Ca2+ fluorescence (FDSS) in HEK cells transfected with rat mGluR5. The assay is classed as cell-based. To be noted: potentiation of mGluR5 response to glutamate, read-out: EC50. The procedure: Human embryonic kidney (HEK) cells transfected with rat mGluR5 were plated in clear bottom assay plates for assay in a Functional Drug Screening System (FDSS). The cells were loaded with a Ca^2+-sensitive fluorescent dye (e.g., Fluo-4), and the plates were washed and placed in the FDSS instrument. After establishment of a fluorescence baseline for twelve seconds, the compounds of the present invention were added to the cells, and the response in cells was measured. Five minutes later, an mGluR5 agonist (e.g., glutamate, 3,5-dihydroxyphenylglycine, or quisqualate) was added to the cells, and the response of the cells was measured. Potentiation of the agonist response of mGluR5 by the compounds in the present invention was observed as an increase in response to non-maximal concentrations of agonist (here, glutamate) in the presence of compound compared to the response to agonist in the absence of compound.
The above described assay operated in two modes. In the first mode, a range of concentrations of the present compounds were added to cells, followed by a single fixed concentration of agonist. If a compound acted as a potentiator, an EC50 value for potentiation and a maximum extent of potentiation by the compound at this concentration of agonist was determined by non-linear curve fitting. In the second mode, several fixed concentrations of the present compounds were added to various wells on a plate, followed by a range of concentrations of agonist for each concentration of present compound; the EC50 values for the agonist at each concentration of compound were determined by non-linear curve fitting. A decrease in the EC50 value of the agonist with increasing concentrations of the present compounds (a leftward shift of the agonist concentration-response curve) is an indication of the degree of mGluR5 potentiation at a given concentration of the present compound. An increase in the EC50 value of the agonist with increasing concentrations of the present compounds (a rightward shift of the agonist concentration-response curve) is an indication of the degree of mGluR5 antagonism at a given concentration of the present compound. The second mode also indicates whether the present compounds also affect the maximum response to mGluR5 to agonists.

Read-outs that look alike come from different tables or passages of the source. Bounds are passed on as bounds.

T1 sequence (P31424 21-1203): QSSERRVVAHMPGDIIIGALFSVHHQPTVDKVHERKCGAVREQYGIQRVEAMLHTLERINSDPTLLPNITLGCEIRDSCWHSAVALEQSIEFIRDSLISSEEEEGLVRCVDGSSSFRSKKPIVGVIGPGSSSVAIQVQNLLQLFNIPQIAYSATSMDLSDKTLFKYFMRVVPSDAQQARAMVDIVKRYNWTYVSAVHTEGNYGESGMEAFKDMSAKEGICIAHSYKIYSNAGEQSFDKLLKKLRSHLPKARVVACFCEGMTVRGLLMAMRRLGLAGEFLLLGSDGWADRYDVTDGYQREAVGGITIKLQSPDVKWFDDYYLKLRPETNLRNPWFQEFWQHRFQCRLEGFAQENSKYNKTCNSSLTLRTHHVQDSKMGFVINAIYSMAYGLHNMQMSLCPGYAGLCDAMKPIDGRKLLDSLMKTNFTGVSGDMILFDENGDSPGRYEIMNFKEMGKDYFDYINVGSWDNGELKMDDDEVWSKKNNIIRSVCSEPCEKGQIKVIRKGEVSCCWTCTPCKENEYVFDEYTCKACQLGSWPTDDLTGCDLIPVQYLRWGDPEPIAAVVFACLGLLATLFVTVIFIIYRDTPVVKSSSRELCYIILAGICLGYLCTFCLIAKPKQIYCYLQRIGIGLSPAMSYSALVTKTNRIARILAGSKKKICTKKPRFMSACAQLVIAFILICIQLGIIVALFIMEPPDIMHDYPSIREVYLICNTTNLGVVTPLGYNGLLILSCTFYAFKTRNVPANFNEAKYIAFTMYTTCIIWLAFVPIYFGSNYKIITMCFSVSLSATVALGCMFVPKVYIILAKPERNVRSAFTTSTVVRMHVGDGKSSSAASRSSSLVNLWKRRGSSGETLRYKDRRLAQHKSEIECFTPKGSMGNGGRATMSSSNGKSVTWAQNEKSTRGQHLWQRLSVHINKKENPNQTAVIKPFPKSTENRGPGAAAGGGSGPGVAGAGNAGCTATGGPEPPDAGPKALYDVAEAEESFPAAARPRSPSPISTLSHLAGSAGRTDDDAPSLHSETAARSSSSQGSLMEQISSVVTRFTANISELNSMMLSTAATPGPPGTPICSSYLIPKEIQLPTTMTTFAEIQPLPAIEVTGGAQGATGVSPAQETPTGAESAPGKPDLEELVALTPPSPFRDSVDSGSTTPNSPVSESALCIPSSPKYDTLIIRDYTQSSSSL

Regarding `CCCCOc1ccc(C(=O)NC2CCCCCC2)cn1` [Example 1.2j.7], where the note is “Table 1”, the EC50 is 2.2 µM. On to `Cc1cc(OCc2cccc(F)c2)ncc1C(=O)N[C@H](C)C(C)(C)C`, for which the EC50 (Table 2) was 0.69 µM. Turning to `Cc1csc(NC(=O)c2ccc(OCc3ccccc3)nc2)n1` [Example 1.2a.20], where the note is “Table 1”, the EC50 is 1.6 µM. `CC(C)(C)CCNC(=O)c1ccc(OCc2ccc(F)cc2)nc1` [Example 1.2d.4]: the EC50 (Table 1) came out at 0.69 µM.

Turning to `CC(COC(C)(C)C)NC(=O)c1ccc(OCc2cccc(F)c2)nc1` (stereo not shown), the EC50 (Table 2) was found to be 4.2 µM. For the molecule `O=C(Nc1ccc(F)cc1F)c1ccc(OCc2ccc(F)cc2)nc1` [Example 1.2d.2], the EC50 (Table 1) was determined as 0.21 µM. With `CC(C)(C)OCCNC(=O)c1ccc(OCc2cccc(F)c2)nc1`, the EC50 (Table 2) is more than 10 µM. Consider `O=C(Nc1ccc(F)cn1)c1ccc(OCc2ccc(F)cc2)nc1` [Example 1.2d.3], for which, under “Table 1”, the EC50 was determined as 0.51 µM. On the same count and under the same terms, the same measure for `CC(C)(C)CCNC(=O)c1ccc(OCc2cccnc2)nc1` [Example 2.3c.1]: 2.9 µM. With `Cc1cc(OCc2cccc(F)c2)ncc1C(=O)N[C@H](C)C1CCCCC1`, the EC50 (Table 2) came out at 0.13 µM.

In the case of `Cc1cc(OCc2ccncc2)ncc1C(=O)NCCC(C)(C)C`, the EC50 (Table 2) was found to be 1.7 µM. With `CC(NC(=O)c1ccc(OCc2cccc(F)c2)nc1)C1CCCCO1` (stereo not shown), the EC50 (Table 2) was more than 10 µM.

Turning to `O=C(Nc1ccccn1)c1ccc(OCc2ccncc2)nc1` [Example 1.2i.2], the EC50 (Table 1) was not below 10 µM. Same read-out and setting: the same measure for `O=C(NC1CCCCC1)c1ccc(OCc2ccncc2)nc1` [Example 1.2i.3]: 1.2 µM.

`O=C(Nc1ccc(F)cc1F)c1ccc(OCc2ccccc2)nc1` [Example 1.2a.5]: the EC50 (Table 1) is 0.14 µM. In the case of `O=C(NC1CCC1)c1ccc(OCc2ccc(F)cc2)nc1` [Example 2.3b.2], the EC50 (Table 1) was determined as 1.2 µM. Turning to `CC[C@@H](C)NC(=O)c1ccc(OCc2cccc(F)c2)nc1`, the EC50 (Table 2) came out at 1.3 µM. Take `COc1ccc(COc2ccc(C(=O)N[C@H](C)C(C)(C)C)cn2)cc1F`: the EC50 (Table 2) was determined as 4.6 µM. As to `O=C(NC1CCCCC1)c1ccc(OCc2nccs2)nc1` [Example 2.3a.9], the EC50 (Table 1) came to 3.1 µM. As for `CC(Oc1ccc(C(=O)N[C@H](C)C(C)(C)C)cn1)c1cccc(F)c1` (stereo partly shown), the EC50 (Table 2) is more than 10 µM. For the molecule `CCCCOc1ccc(C(=O)Nc2ccc(F)cn2)cn1` [Example 1.2j.4], the EC50 (Table 1) came out at 1.5 µM. The same measure, in the same setting: the same measure for `O=C(Nc1ccccn1)c1ccc(OCc2ccccc2F)nc1` [Example 1.2f.1]: 0.3 µM. Turning to `C[C@H](NC(=O)c1ccc(OCc2cccc(F)c2)nc1)C(C)(C)O`, the EC50 (Table 2) worked out at 0.61 µM. On to `O=C(Nc1ccccc1F)c1ccc(OCc2ccccc2)nc1` [Example 1.2a.15], for which the EC50 (Table 1) amounted to 0.31 µM.

`C[C@@H](NC(=O)c1ccc(OCc2cccc(F)c2)nc1)C1CCCCC1` [Example 1.2c.18]: the EC50 (Table 1) came out at 0.19 µM. On to `O=C(NC12CC3CC(CC(C3)C1)C2)c1ccc(OCc2ccccc2)nc1`, for which the EC50 (Table 2) amounted to 0.18 µM. Take `CC1(O)CC(NC(=O)c2ccc(OCc3cccc(F)c3)nc2)C1` (stereo not shown): the 50% effective concentration (EC50) (Table 2) was more than 10 µM.

For `O=C(N[C@@H](C1CC1)C(F)(F)F)c1ccc(OCc2cccc(F)c2)nc1`, for the setting “Table 2”, the EC50 was 0.1 µM. As for `O=C(Nc1ccccn1)c1ccc(OCc2ccccc2)nc1` [Example 1.2a.4], where the note is “Table 1”, the EC50 was 0.41 µM.

For the molecule `COc1ccccc1COc1ccc(C(=O)N[C@H](C)C(C)(C)C)cn1`, the EC50 (Table 2) is more than 10 µM.

Take `Cc1cc(C(=O)Nc2ccc(F)cc2F)cnc1OCc1cccc(F)c1`: the EC50 (Table 2) was more than 10 µM. Still for that read-out and setting: the same measure for `COc1cc(F)cc(COc2ccc(C(=O)N[C@H](C)C(C)(C)C)cn2)c1`: 5.1 µM; for `O=C(NC1C2CC3CC(C2)CC1C3)c1ccc(OCc2ccccc2)nc1` (stereo not shown): 0.039 µM. In the case of `O=C(Nc1ccc(F)cc1F)c1ccc(OCc2cccc(F)c2)nc1` [Example 1.2c.21], the EC50 (Table 1) came out at 0.076 µM. Same read-out and setting: the same measure for `Cc1nc(OCc2cccc(F)c2)ccc1C(=O)NC1CCCCC1` [Example 1.2m.3]: 0.61 µM.

Turning to `O=C(NCc1ccccn1)c1ccc(OCc2cccc(F)c2)nc1` [Example 1.2c.8], the EC50 (Table 1) amounted to 2.7 µM. As for `O=C(c1ccc(OCc2ccccc2)nc1)N1CCC1` [Example 1.2a.10], the EC50 (Table 1) was 3.7 µM.

Consider `CC(NC(=O)c1ccc(OCc2cccc(F)c2)nc1)C1CCCOC1` (stereo not shown), for which the EC50 (Table 2) came to 3.7 µM. Consider `O=C(NC1CCCCC1)c1ccc(OCc2ccccc2F)nc1` [Example 1.2f.3], for which, where the note is “Table 1”, the EC50 was 0.11 µM.

On to `O=C(NC1CCCC1)c1ccc(OCc2ccccc2)nc1`, for which the concentration for a half-maximal effect (EC50) (Table 2) came out at 0.18 µM. Same read-out and setting: the same measure for `CC(C)(C)[C@@H](CO)NC(=O)c1ccc(OCc2cccc(F)c2)nc1`: 3.2 µM; for `CC1(CCNC(=O)c2ccc(OCc3cccc(F)c3)nc2)COC1`: more than 10 µM. On the same count and under the same terms, the same measure for `COc1nc(OCc2cccc(F)c2)ccc1C(=O)NCCC(C)(C)C`: more than 10 µM; for `O=C(NC(C1CC1)C1CC1)c1ccc(OCc2cccc(F)c2)nc1`: 0.3 µM. In the case of `O=C(Nc1ccc(F)cc1)c1ccc(OCc2ccccc2)nc1` [Example 1.2a.17], the EC50 (Table 1) amounted to 0.34 µM.

On to `CC(C)(C)NC(=O)c1ccc(OCc2ccccc2)nc1` [Example 1.2a.6], for which the EC50 (Table 1) turned out to be 0.23 µM.

On to `C[C@@H](NC(=O)c1cnc(OCc2ccncc2)c(C#N)c1)C1CCCCC1`, for which, for the setting “Table 2”, the EC50 came to 1.9 µM. Same read-out and setting: the same measure for `Cc1cc(C(=O)N[C@H](C)C2CCCCC2)cnc1OCc1ccncc1`: 3.6 µM. Take `Cc1nc(OCc2ccncc2)ccc1C(=O)NCCC(C)(C)C` [Example 1.2n.1]: the EC50 (Table 1) was 3.4 µM. In the case of `COc1ccc(COc2ccc(C(=O)N[C@H](C)C(C)(C)C)cn2)cc1`, the EC50 (Table 2) worked out at 5.4 µM. Same read-out and setting: the same measure for `C[C@@H](NC(=O)c1cnc(OCc2ccncc2)c(Br)c1)C1CCCCC1`: 3.6 µM. In the case of `O=C(NC(c1ccccn1)C(F)(F)F)c1ccc(OCc2cccc(F)c2)nc1` (stereo not shown), the EC50 (Table 2) was more than 10 µM. Still for that read-out and setting: the same measure for `C[C@@H](NC(=O)c1cnc(OCc2ccncc2)c(C(F)(F)F)c1)C1CCCCC1`: more than 10 µM.

On to `N#Cc1cccc(COc2ccc(C(=O)NC3CCCCC3)cn2)c1` [Example 2.3a.7], for which the concentration for a half-maximal effect (EC50) (Table 1) worked out at 0.095 µM. The same measure, in the same setting: the same measure for `C[C@@H](NC(=O)c1ccc(OCc2ccccc2)nc1)C1CC1` [Example 1.2a.22]: 0.17 µM.

Take `Cc1cc(OCc2cccc(F)c2)ncc1C(=O)NCCC(C)(C)C`: the EC50 (Table 2) was 0.96 µM.

For `O=C(Nc1ccc(Cl)cn1)c1ccc(OCc2cccc(F)c2)nc1` [Example 1.2c.13], the EC50 (Table 1) worked out at 0.346 µM.

Take `COc1ccc(F)cc1COc1ccc(C(=O)N[C@H](C)C(C)(C)C)cn1`: the EC50 (Table 2) stood at 3.5 µM. On to `O=C(NC1CCCCC1)c1ccc(OCc2ccccc2)nc1` [Example 1.2a.24], for which the EC50 (Table 1) was determined as 0.14 µM. Still for that read-out and setting: the same measure for `O=C(NCC1CC1)c1ccc(OCc2cccc(F)c2)nc1` [Example 1.2c.14]: 0.92 µM.

Turning to `C[C@@H](NC(=O)c1ccc(OCc2cccc(F)c2)nc1)C1CCC1`, the EC50 (Table 2) came out at 0.0066 µM. With `O=C(NC1CCCCC1)c1ccc(OCC2CCCC2)nc1` [Example 2.3a.4], for the setting “Table 1”, the EC50 came to 0.71 µM. With `COc1cccc(COc2ccc(C(=O)N[C@H](C)C(C)(C)C)cn2)c1`, under “Table 2”, the EC50 was found to be 0.12 µM. On the same count and under the same terms, the same measure for `COc1c(F)cccc1COc1ccc(C(=O)N[C@H](C)C(C)(C)C)cn1`: 5.2 µM; for `C[C@H](NC(=O)c1ccc(OCc2cccc(F)c2)nc1Cl)C(C)(C)C`: more than 10 µM. Regarding `Cc1cc(OCc2ccncc2)ncc1C(=O)N[C@H](C)C1CCCCC1`, the 50% effective concentration (EC50) (Table 2) turned out to be 0.61 µM. The same measure, in the same setting: the same measure for `CC(NC(=O)c1ccc(OCc2cccc(F)c2)nc1)C(C)(C)O` (stereo not shown): 0.66 µM. Regarding `Cc1ccc(COc2ccc(C(=O)NC3CCC3)cn2)cc1` [Example 2.3b.1], for the setting “Table 1”, the EC50 is 1.8 µM. On to `COc1cc(C(=O)NCCC(C)(C)C)cnc1OCc1cccc(F)c1`, for which, where the note is “Table 2”, the EC50 turned out to be 1.9 µM. In the case of `O=C(Nc1ccc(F)cc1F)c1ccc(OCc2ccncc2)nc1` [Example 1.2i.4], under “Table 1”, the EC50 is 0.81 µM. As to `O=C(NC1CCCCC1)c1ccc(OCc2ccc(F)cc2)nc1` [Example 2.3a.6], the EC50 (Table 1) stood at 0.75 µM. Still for that read-out and setting: the same measure for `O=C(NC1CCOCC1)c1ccc(OCc2cccc(F)c2)nc1` [Example 1.2c.20]: 1.6 µM. For the molecule `Cc1cc(C(=O)NCCC(C)(C)C)cnc1OCc1cccc(F)c1`, under “Table 2”, the EC50 came to 1.3 µM. Same read-out and setting: the same measure for `CC(C)(C)CCNC(=O)c1cnc(OCc2ccncc2)c(C#N)c1`: more than 10 µM. On to `CCCCOc1ccc(C(=O)Nc2ccccc2)cn1` [Example 1.2j.5], for which the EC50 (Table 1) amounted to 0.65 µM. `C[C@@H](NC(=O)c1ccc(OCc2cccc(F)c2)nc1)C1CCOC(C)(C)C1` (stereo partly shown): the 50% effective concentration (EC50) (Table 2) was found to be 1.7 µM. As to `Cc1nc(OCc2ccccc2)ccc1C(=O)NCC1CC1` [Example 1.2b.2], the EC50 (Table 1) was 1.6 µM. The same measure, in the same setting: the same measure for `Cc1cccc(COc2ccc(C(=O)NC3CCC3)cn2)c1` [Example 1.2g.2]: 0.12 µM. Regarding `Cc1cc(C(=O)N[C@H](C)C2CCCCC2)cnc1OCc1cccc(F)c1`, the EC50 (Table 2) was determined as 0.49 µM.
